Source: PMC11149339, “Necessity for higher teicoplanin doses in older adults: a multicenter prospective observational study in China” (BMC Geriatrics, 2024)

Experiment: Therapeutic drug monitoring of teicoplanin trough concentration (Cmin) during treatment, LC-MS/MS
Assay type: in vivo, human
Settings: for patients with TDM 10–20 mg/L At 8-14d, N (%) / patients with TDM < 10 mg/L At 8-14d, N (%) / patients with TDM > 20 mg/L At 8-14d, N (%) / TDM At 8-14d (teicoplanin trough concentration): 8–14 days after first dose; for TDM At 8-14d (teicoplanin trough concentration) / TDM At 3d (teicoplanin trough concentration): median [IQR], LC-MS/MS; for patients with TDM 10–20 mg/L At 3d, N (%) / patients with TDM < 10 mg/L At 3d, N (%) / patients with TDM > 20 mg/L At 3d, N (%) / TDM At 3d (teicoplanin trough concentration): 3 days after first dose
Protocol: Teicoplanin (Targocid, Sanofi, Dublin, Ireland) was administered intravenously for 30 min. The prescribed dose regimens were at the discretion of treating physicians, and the recommended regimens were not always followed.
Blood samples (5 mL) were collected from the elbow into ethylenediaminetetraacetic acid-containing Vacutainers® (Becton Dickinson, Milan, Italy) in the morning before teicoplanin administration and after drug withdrawal. Samples were promptly refrigerated and centrifuged at 2500 × g for 10 min before 2 mL of supernatant was preserved at -20 °C for subsequent analysis. Teicoplanin concentrations were determined using liquid chromatography-tandem mass spectrometry. The linear range of the method was 1.0–100.0 mg/L, and the lower limit of quantification was 1.0 mg/L. The relative standard deviation of intra- and inter-batch precision was ≤ 10%.
Teicoplanin concentrations were dynamically monitored. Concentrations at 3, ≤ 7, 8–14, and ≥ 15 days after the first dose and within 2 h of the next scheduled dose were recorded as TDM3d, TDM≤7d, TDM8-14d, and TDM≥15d, respectively. Concentrations at 3, ≤ 7, 8–14, and ≥ 15 days after the last teicoplanin dose (withdrawal) were recorded as TDMw3d, TDMw≤7d, TDMw8-14d, and TDMw≥15d. respectively (Fig. 1a). The Cmin target was ≥ 10 mg/L [6, 7, 23]; a concentration < 10 mg/L was considered suboptimal. Average TDM (TDMa) was defined as the mean Cmin after 3 days of treatment.

[1] = LR-A + MR-A (200 mg once daily, then 200 mg once daily)
[2] = LR-B + MR-A (400 mg once daily, then 200 mg once daily)
[3] = LR-B + MR-B (400 mg once daily, then 400 mg once daily)
[4] = LR-C + MR-B (400 mg at 12-h intervals, then 400 mg once daily)
[5] = LR-C + MR-C (400 mg at 12-h intervals, then 400 mg twice daily)

- patients with TDM 10–20 mg/L At 8-14d, N (%) (LR-A + MR-A): 20(41.7)
- patients with TDM < 10 mg/L At 8-14d, N (%) (LR-A + MR-A): 22(45.8)
- patients with TDM > 20 mg/L At 8-14d, N (%) (LR-A + MR-A): 6(12.5)
- TDM At 8-14d (teicoplanin trough concentration) [1]: 10.4[7.3,17.8] mg/L
- patients with TDM 10–20 mg/L At 8-14d, N (%) (LR-B + MR-A): 25(53.2)
- patients with TDM < 10 mg/L At 8-14d, N (%) (LR-B + MR-A): 16(34.0)
- patients with TDM > 20 mg/L At 8-14d, N (%) (LR-B + MR-A): 6(12.8)
- TDM At 8-14d (teicoplanin trough concentration) [2]: 11.0[7.3,15.4] mg/L
- patients with TDM 10–20 mg/L At 8-14d, N (%) (LR-B + MR-B): 2(50.0)
- patients with TDM < 10 mg/L At 8-14d, N (%) (LR-B + MR-B): 1(25.0)
- patients with TDM > 20 mg/L At 8-14d, N (%) (LR-B + MR-B): 1(25.0)
- TDM At 8-14d (teicoplanin trough concentration) [3]: 12.8[9.0,21.5] mg/L
- patients with TDM 10–20 mg/L At 8-14d, N (%) (LR-C + MR-B): 8(57.2)
- patients with TDM < 10 mg/L At 8-14d, N (%) (LR-C + MR-B): 5(35.7)
- patients with TDM > 20 mg/L At 8-14d, N (%) (LR-C + MR-B): 1(7.1)
- TDM At 8-14d (teicoplanin trough concentration) [4]: 14.16[8.9,16.4] mg/L
- patients with TDM 10–20 mg/L At 8-14d, N (%) (LR-C + MR-C): 3(37.5)
- patients with TDM < 10 mg/L At 8-14d, N (%) (LR-C + MR-C): 0
- patients with TDM > 20 mg/L At 8-14d, N (%) (LR-C + MR-C): 5(62.5)
- TDM At 8-14d (teicoplanin trough concentration) [5]: 21.2[16.8,27.4] mg/L
- TDM At 8-14d (teicoplanin trough concentration) (all patients (N = 204), iv): 11.1[8.5,17.6] mg/L
- patients with TDM 10–20 mg/L At 3d, N (%) (LR-A + MR-A): 0
- patients with TDM < 10 mg/L At 3d, N (%) (LR-A + MR-A): 16(100)
- patients with TDM > 20 mg/L At 3d, N (%) (LR-A + MR-A): 0
- TDM At 3d (teicoplanin trough concentration) [1]: 5.4[3.0,7.7] mg/L
- patients with TDM 10–20 mg/L At 3d, N (%) (LR-B + MR-A): 2(10.5)
- patients with TDM < 10 mg/L At 3d, N (%) (LR-B + MR-A): 17(89.5)
- patients with TDM > 20 mg/L At 3d, N (%) (LR-B + MR-A): 0
- TDM At 3d (teicoplanin trough concentration) [2]: 6.3[4.4,7.9] mg/L
- patients with TDM 10–20 mg/L At 3d, N (%) (LR-B + MR-B): 1(16.7)
- patients with TDM < 10 mg/L At 3d, N (%) (LR-B + MR-B): 3(50.0)
- patients with TDM > 20 mg/L At 3d, N (%) (LR-B + MR-B): 2(33.3)
- TDM At 3d (teicoplanin trough concentration) [3]: 11.1[8.1,22.2] mg/L
- patients with TDM 10–20 mg/L At 3d, N (%) (LR-C + MR-B): 5(62.5)
- patients with TDM < 10 mg/L At 3d, N (%) (LR-C + MR-B): 3(37.5)
- patients with TDM > 20 mg/L At 3d, N (%) (LR-C + MR-B): 0
- TDM At 3d (teicoplanin trough concentration) [4]: 11.0[7.0,13.3] mg/L
- patients with TDM 10–20 mg/L At 3d, N (%) (LR-C + MR-C): 7(50.0)
- patients with TDM < 10 mg/L At 3d, N (%) (LR-C + MR-C): 3(21.4)
- patients with TDM > 20 mg/L At 3d, N (%) (LR-C + MR-C): 4(28.6)
- TDM At 3d (teicoplanin trough concentration) [5]: 14.4[10.7,21.1] mg/L
- TDM At 3d (teicoplanin trough concentration) (all patients (N = 204), iv): 7.7[5.6,12.4] mg/L
- target concentration achievement rate (≥ 10 mg/L) (TDM8-14d, LR-A + MR-A regimen): 54.2%
- target concentration achievement rate (≥ 10 mg/L) (TDM8-14d, LR-B + MR-A regimen): 66.0%
- target concentration achievement rate (≥ 10 mg/L) (TDM8-14d, LR-B + MR-B regimen): 75.0%
- target concentration achievement rate (≥ 10 mg/L) (TDM8-14d, LR-C + MR-C regimen): 100%
- target concentration achievement rate (≥ 10 mg/L) (TDM3d, LR-A + MR-A regimen): 0%
- target concentration achievement rate (≥ 10 mg/L) (TDM3d, LR-B + MR-A regimen): 10.5%
- target concentration achievement rate (≥ 10 mg/L) (TDM3d, LR-B + MR-B regimen): 50.0%
- target concentration achievement rate (≥ 10 mg/L) (TDM3d, LR-C + MR-B regimen): 62.5%
- target concentration achievement rate (≥ 10 mg/L) (TDM3d, LR-C + MR-C regimen): 78.6%
- target concentration achievement rate (≥ 10 mg/L) (TDM≤7d, LR-A + MR-A regimen): 18.3%
- target concentration achievement rate (≥ 10 mg/L) (TDM≤7d, LR-B + MR-A regimen): 24.1%
- target concentration achievement rate (≥ 10 mg/L) (TDM≤7d, LR-B + MR-B regimen): 57.2%
- target concentration achievement rate (≥ 10 mg/L) (TDM≤7d, LR-C + MR-B regimen): 56.2%
- target concentration achievement rate (≥ 10 mg/L) (TDM≤7d, LR-C + MR-C regimen): 85.7%
Substance: Teicoplanin
